In patent publication US11124516B2, “Pyrrolo[1,2-A]pyrimidinyl carboxamide compounds and their use in the treatment of medical disorders” (Bial—Biotech Investments, Inc., priority 2016, dated 2021):
≈ marks a conversion by molar mass, not a printed value.

What was measured:
[1] = target: T1, glucocerebrosidase (Gcase) (Homo sapiens, UniProt P04062); assay: Glucocerebrosidase (Gcase) activation assay, 4-methylumbelliferyl-beta-D-glucopyranoside substrate, fluorescence; assay type: biochemical; conditions: 10 nM GCase, 100 nM saposin C; for activation at 0.1 µM / activation at 1 µM: 0.25 h; for activation at 0.1 µM: pH 4.7, test compound at 0.1 μM, read-out: Percent Gcase Activation 0.1 μM Test Compound; for activation at 1 µM: pH 4.7, test compound at 1.0 μM, read-out: Percent Gcase Activation 1 μM Test Compound
T1 sequence (P04062 40-536): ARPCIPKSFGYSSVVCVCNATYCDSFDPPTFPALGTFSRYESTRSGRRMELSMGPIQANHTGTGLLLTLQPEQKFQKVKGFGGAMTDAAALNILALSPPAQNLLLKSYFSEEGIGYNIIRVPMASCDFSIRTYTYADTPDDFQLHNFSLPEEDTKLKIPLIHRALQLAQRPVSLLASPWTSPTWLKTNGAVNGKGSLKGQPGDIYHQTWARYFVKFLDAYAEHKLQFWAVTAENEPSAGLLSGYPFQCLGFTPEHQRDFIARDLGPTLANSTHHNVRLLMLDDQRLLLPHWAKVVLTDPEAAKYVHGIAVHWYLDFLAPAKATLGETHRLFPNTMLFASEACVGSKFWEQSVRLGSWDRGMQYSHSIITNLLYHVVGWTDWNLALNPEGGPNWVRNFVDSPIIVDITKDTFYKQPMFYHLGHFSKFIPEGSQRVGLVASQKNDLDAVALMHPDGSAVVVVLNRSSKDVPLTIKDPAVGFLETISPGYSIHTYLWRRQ
Description: The ability of exemplary compounds to activate glucocerebrosidase (Gcase) was measured.
A 484 μL aliquot of a 1.0 mg/mL solution of phosphatidylserine (PS) (Sigma P7769) in chloroform was evaporated under a stream of nitrogen for 1 hour. The lipid film was dissolved over 4 minutes of vigorous vortexing in 40 mL of 176 mM K2HPO4/50 mM citric acid (pH 4.7) containing 7.5 μL of triton X-100, resulting in a mixed micellar preparation with a composition of 0.32 mM triton and 0.37 mol % PS. 4-Methylumbelliferyl-beta-D-glucopyranoside (ACROS-337025000) was dissolved in the micellar solution to a final concentration of 2 mM for use as the reaction substrate.
Test compounds were diluted to the desired concentrations with dimethylsulfoxide (DMSO) from 10 mM stocks, and 0.41 μL of the DMSO compound mixture was added to 100 μL of micellar solution containing 10 nM GCase and 100 nM saposin C (Enzo ALX-201-262-C050). Pre-incubation was allowed to occur for 30 minutes at room temperature, after which the reaction was initiated by combining 25 μL of substrate solution with 25 μL of compound/GCase/saposin mixture. The reaction proceeded for 15 minutes at room temperature and was stopped by adding 150 μL of 1M glycine, pH 12.5. The endpoint of the reaction was monitored by measuring fluorescence intensity (excitation: 365 nm; emission: 440 nm) on a SpectraMax i3 instrument (Molecular Devices). Test compounds were screened at 1.0 and 0.1 μM final concentration, and subsequent 8-point dose response curves were obtained using 3-fold dilutions from a maximum final concentration of 5 μM.
For experiments in which the test compound was used at a concentration of 1.0 μM, the symbol “+” indicates less than 30% Gcase activation; the symbol “++” indicates Gcase activation in the range of 30% up to 60%; and the symbol “+++” indicates Gcase activation greater than 60%. For experiments in which the test compound was used at a concentration of 0.1 μM, the symbol “*” indicates less than 10% Gcase activation; the symbol “**” indicates Gcase activation in the range of 10% up to 20%; and the symbol “***” indicates greater than 20% Gcase activation.

[2] = Compound solubility in water; assay type: physicochemical

| SMILES | activation at 0.1 µM [1] [%] | activation at 1 µM [1] [%] | solubility [2] [µg/mL] | Percent Gcase Activation 0.1 μM Test Compound ([1]; test compound at 0.1 μM, pH 4.7) | Percent Gcase Activation 1 μM Test Compound ([1]; test compound at 1.0 μM, pH 4.7) | Compound Solubility in Water [2] [µg/mL] |
| --- | --- | --- | --- | --- | --- | --- |
| Cc1cc(N2CCOCC2)nc2c(C(=O)NC(C)(C)C3CC3)ccn12 [III-35] | 10 to 20 | > 60 | 14 (≈ 40.9 µM) | – | – | – |
| Cc1cc(C2CCOCC2)nc2c(C(=O)NC(C)(C)C3CC3)ccn12 [III-36] | < 10 | 30 to 60 | 21.3 (≈ 62.4 µM) | – | – | – |
| Cc1cc(NC2CCOCC2)nc2c(C(=O)NC(C)(C)C3CC3)ccn12 [III-38] | 10 to 20 | > 60 | 10.1 (≈ 28.3 µM) | – | – | – |
| Cc1cc(-c2ccccn2)nc2c(C(=O)NC(C)(C)C3CC3)ccn12 [III-39] | > 20 | > 60 | 0.7 (≈ 2.09 µM) | – | – | – |
| Cc1cc(-c2ccncc2)nc2c(C(=O)NC(C)(C)C3CC3)ccn12 [III-40] | 10 to 20 | > 60 | 3.5 (≈ 10.5 µM) | – | – | – |
| Cc1cc(-c2cccnc2)nc2c(C(=O)NC(C)(C)C3CC3)ccn12 [III-41] | > 20 | > 60 | 2.5 (≈ 7.48 µM) | – | – | – |
| Cc1cc(-c2cncnc2)nc2c(C(=O)NC(C)(C)C3CC3)ccn12 [III-42] | 10 to 20 | > 60 | 3.4 (≈ 10.1 µM) | – | – | – |
| Cc1cc(N2CCC(F)(F)CC2)nc2c(C(=O)NC(C)(C)C3CC3)ccn12 [III-44] | 10 to 20 | > 60 | 1.4 (≈ 3.72 µM) | – | – | – |
| Cc1cc(NC2CC3CCC(C2)O3)nc2c(C(=O)NC(C)(C)C3CC3)ccn12 (stereo not drawn) [III-45] | < 10 | 30 to 60 | 12.3 (≈ 32.2 µM) | – | – | – |
| CC(C)(NC(=O)c1ccn2ccc(-c3ccc(F)cc3)nc12)C1CC1 [III-46] | < 10 | 30 to 60 | 0.3 (≈ 0.889 µM) | – | – | – |
| C[C@H](NC(=O)c1ccn2ccc(-c3ccc(F)cc3)nc12)C1CC1 [III-47] | < 10 | 30 to 60 | 0.1 (≈ 0.309 µM) | – | – | – |
| CO[C@H]1CC[C@H](NC(=O)c2ccn3c(C)cc(-c4ccc(F)cc4)nc23)CC1 [III-48] | 10 to 20 | > 60 | 0.9 (≈ 2.36 µM) | – | – | – |
| C[C@H](NC(=O)c1ccn2cc(-c3ccc(F)cc3)cnc12)C1CC1 [III-49] | < 10 | < 30 | 0.3 (≈ 0.928 µM) | – | – | – |
| Cc1c(-c2ccc(F)cc2)cnc2c(C(=O)N[C@@H](C)C3CC3)ccn12 [III-51] | < 10 | < 30 | 0.1 (≈ 0.296 µM) | – | – | – |
| Cc1nc2c(C(=O)N[C@@H](C)C3CC3)ccn2c(C)c1-c1ccc(F)cc1 [III-52] | < 10 | < 30 | 1.7 (≈ 4.84 µM) | – | – | – |
| Cc1cc(-c2cccnc2)nc2c(C(=O)NC(C3CC3)C(F)(F)F)ccn12 (stereo not drawn) [III-55] | > 20 | > 60 | 2.9 (≈ 7.75 µM) | – | – | – |
| Cc1cc(-c2cccnc2)nc2c(C(=O)N[C@H]3CC[C@H](OC(C)(C)C)CC3)ccn12 [III-56] | 10 to 20 | > 60 | 11.6 (≈ 28.5 µM) | – | – | – |
| CCCO[C@H]1CC[C@H](NC(=O)c2ccn3c(C)cc(-c4cccnc4)nc23)CC1 [III-57] | 10 to 20 | > 60 | 14.9 (≈ 38 µM) | – | – | – |

| SMILES | activation at 0.1 µM [1] [%] | activation at 1 µM [1] [%] | solubility [2] [µg/mL] | Percent Gcase Activation 0.1 μM Test Compound ([1]; test compound at 0.1 μM, pH 4.7) | Percent Gcase Activation 1 μM Test Compound ([1]; test compound at 1.0 μM, pH 4.7) | Compound Solubility in Water [2] [µg/mL] |
| --- | --- | --- | --- | --- | --- | --- |
| Cc1cc(-c2cccnc2)nc2c(C(=O)N[C@H]3CC[C@H](OCC(C)C)CC3)ccn12 [III-58] | > 20 | > 60 | 1.9 (≈ 4.67 µM) | – | – | – |
| CCCCO[C@H]1CC[C@H](NC(=O)c2ccn3c(C)cc(-c4cccnc4)nc23)CC1 [III-59] | > 20 | > 60 | 1.9 (≈ 4.67 µM) | – | – | – |
| Cc1cc(-c2cccnc2)nc2c(C(=O)N[C@H]3CC[C@H](OCC(C)(C)C)CC3)ccn12 [III-60] | > 20 | > 60 | 1.3 (≈ 3.09 µM) | – | – | – |
| C#Cc1ccc(NC(=O)c2ccn3c(C)cc(-c4cccnc4)nc23)cc1 [III-61] | > 20 | > 60 | 1.2 (≈ 3.41 µM) | – | – | – |
| Cc1cc(C)n2ccc(C(=O)NC(C)C3CCCCC3)c2n1 (stereo not drawn) [III-62] | > 20 | > 60 | 5.1 (≈ 17 µM) | – | – | – |
| Cc1cc(C)n2ccc(C(=O)NC(C)C3CCCCC3)c2n1 (stereo not drawn) [III-63] | – | – | – | *** (greater than 20% Gcase activation) | +++ (Gcase activation greater than 60%) | 4.2 |
| Cc1cc(C)n2ccc(C(=O)N[C@@H](C)C3CC3)c2n1 [III-64] | > 20 | > 60 | 21.7 (≈ 84.3 µM) | – | – | – |
| Cc1cc(C)n2ccc(C(=O)N[C@H](C)C3CC3)c2n1 [III-65] | < 10 | 30 to 60 | 20.7 (≈ 80.4 µM) | – | – | – |
| Cc1nc2c(C(=O)N[C@H]3CC[C@H](OC(C)(C)C)CC3)ccn2c2c1CCC2 [III-70] | < 10 | < 30 | 1.5 (≈ 4.06 µM) | – | – | – |
| Cc1c2c(nc3c(C(=O)N[C@H]4CC[C@H](OC(C)(C)C)CC4)ccn13)CCC2 [III-71] | < 10 | 30 to 60 | 8 (≈ 21.7 µM) | – | – | – |
| Cc1nc2c(C(=O)NC(C)(C)C3CC3)ccn2c2c1CCC2 [III-72] | < 10 | > 60 | 1.5 (≈ 5.04 µM) | – | – | – |
| Cc1c2c(nc3c(C(=O)NC(C)(C)C4CC4)ccn13)CCC2 [III-73] | 10 to 20 | > 60 | 0.9 (≈ 3.03 µM) | – | – | – |
| Cc1cc(C)n2ccc(C(=O)NC(=O)C3CC3)c2n1 [III-74] | < 10 | < 30 | 24.8 (≈ 96.4 µM) | – | – | – |
| COCc1cc(C)n2ccc(C(=O)N[C@H]3CC[C@H](OCC(C)(C)C)CC3)c2n1 [IV-1] | > 20 | > 60 | 2.5 (≈ 6.45 µM) | – | – | – |
| COCc1cc(C)nc2c(C(=O)N[C@H]3CC[C@H](OCC(C)(C)C)CC3)ccn12 [IV-2] | > 20 | > 60 | 4.2 (≈ 10.8 µM) | – | – | – |
| COCc1cc(C)nc2c(C(=O)N[C@H]3CC[C@H](OCC(C)C)CC3)ccn12 [IV-3] | > 20 | > 60 | 15.9 (≈ 42.6 µM) | – | – | – |
| COCc1cc(C)n2ccc(C(=O)N[C@H]3CC[C@H](OCC(C)C)CC3)c2n1 [IV-4] | 10 to 20 | > 60 | 16.9 (≈ 45.2 µM) | – | – | – |
